In article PMC10331946, “Characterization of Natural Compounds as Inhibitors of NS1 Endonuclease from Canine Parvovirus Type 2” (Journal of Microbiology and Biotechnology, 2023):

Experiments:
[1] = target: T1, CPV-2 NS1 endonuclease (Canine parvovirus type 2, UniProt P12929); assay: FRET nicking assay, inhibition of recombinant CPV-2 NS1 endonuclease; type: biochemical, Canine parvovirus type 2 (CPV-2); conditions: for IC50: single compounds, 1.25 μg endonuclease, pH 7.0, 300 mM NaCl, 37°C, curcumin by 4PL, others by linear regression
T1 construct: hexahistidine (N); hexahistidine (C); made in house; host or cells: E. coli BL21 (De3) pLysS
T1 sequence (P12929 1-277): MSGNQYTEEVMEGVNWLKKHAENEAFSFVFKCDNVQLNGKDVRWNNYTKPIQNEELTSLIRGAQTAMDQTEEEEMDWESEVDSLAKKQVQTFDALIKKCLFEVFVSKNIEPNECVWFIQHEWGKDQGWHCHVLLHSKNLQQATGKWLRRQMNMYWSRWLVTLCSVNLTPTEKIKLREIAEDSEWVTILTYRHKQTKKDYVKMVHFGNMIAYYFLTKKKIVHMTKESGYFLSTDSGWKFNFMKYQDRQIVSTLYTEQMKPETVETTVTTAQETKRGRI
Description: The fluorescence resonance energy transfer (FRET) substrate, which was composed of an oligonucleotide 5¢-TAA CCT TAC CAT AAG TA↓T CAA TCT GTC TTT-3¢ labeled with carboxyfluorescein (FAM) at the 5¢-terminus and black hole quencher 1 (BHQ1) at the 3¢-terminus as the energy transfer pair, was designed and synthesized by Bioneer Corp. (Korea) (Fig. S1).
cDNA of the CPV-2 NS1 endonuclease gene was synthesized after codon optimization (Genscript, USA) based on the N-terminal amino acid sequence (amino acids 1–277 of the DNA-binding region) of CPV-2 NS1 endonuclease (GenBank Accession No. AAV36764.1) (Fig. S2). The CPV-2 NS1 endonuclease gene was imbedded into the pET-28a (+) vector (Novagen, Germany) with hexahistidine tags at the N- and C-termini. The plasmids were transformed into E. coli BL21 (De3) pLysS (Invitrogen, USA) for expression. The transformed cells were cultured in 1 L of LB containing 30 μg/ml kanamycin at 37°C until the OD600 reached 0.6. Next, protein expression was induced with 1 mM isopropyl β-D-1-thiogalactopyranoside (IPTG) at 24°C for 20 h. Cells were harvested by centrifugation at 12,000 ×g for 25 min and 4°C. The pellet was resuspended in 50 ml 50 mM Tris-HCl buffer (pH 7.0) containing 300 mM NaCl and disrupted by sonication. After centrifugation at 12,000 ×g for 30 min and 4°C, the supernatant was applied to a Ni-NTA agarose column (Qiagen, Germany) and washed with 50 mM Tris-HCl buffer (pH 8.0) containing 300 mM NaCl and 20 mM imidazole. CPV-2 NS1 endonuclease was eluted with 50 mM Tris-HCl buffer (pH 8.0) containing 300 mM NaCl, and 250 mM imidazole, and dialyzed against 50 mM Tris-HCl (pH 7.0) containing 300 mM NaCl at 4°C overnight. The purified protein was stored at −20°C until required.
CPV-2 NS1 endonuclease activity was measured using an FRET substrate as described above. The reaction mixture was composed of 1.25 μg endonuclease and 0.6 μM FRET in 50 mM Tris-HCl buffer (pH 7.0). The reaction was run at 37°C with continuous monitoring of fluorescence for 10 min. Relative fluorescence units (RFUs) were measured using a SpectraMax M3 fluorescence plate reader (Molecular Devices, USA) with an excitation wavelength of 495 nm and an emission wavelength of 517 nm.
Thirty-one compounds, extracted sesame cake, turmeric, and yerba mate were tested for inhibitory effects against CPV-2 NS1 endonuclease. For screening, thirty-one compounds, turmeric, and yerba mate were dissolved in dimethyl sulfoxide (DMSO) to 5 mM or 10 mg/ml as stock solutions. Sesame cake extract (10 mg/ml) was solubilized in water. The reaction was initiated by adding 0.6 μM FRET substrate to a mixture of 50 μM compound and 1.25 μg endonuclease in 50 mM Tris-HCl buffer (pH 7.0) containing 300 mM NaCl. The reaction was run at 37°C for 3 min using a SpectraMax M3 fluorescence plate reader with an excitation wavelength of 495 nm and emission wavelength of 517 nm. Inhibitory activity was calculated using the following equation:
Inhibition activity (%) 100-[(S-S0)÷(C-C0)]×100
where C is RFU of the control (enzyme, buffer, and substrate) after a 3 min reaction, C0 is the RFU of the control at 0 min, S is the RFU of the sample (enzyme, buffer, inhibitor, and substrate) after 3 min, and S0 is the RFU of the sample at 0 min.
We determined the 50% inhibitory concentrations (IC50) of the six natural compounds, extracted turmeric, yerba mate, and sesame cake relative to the inhibitor-free control. The IC50 values of curcumin, and extracted sesame cake were calculated using a four-parameter logistic curve (4PL) using Prism v. 8 software (GraphPad Software Inc., USA). […] 8 software.

[2] = system: bird; conditions: free curcumin 30 mg/kg of feed, cited from earlier work
[3] = system: canine; set-up: method as in Campigotto et al., 34; conditions: diet containing curcumin; ref Campigotto et al., 34; cited from earlier work
[4] = system: all animals; set-up: method as in PMID 42087962; conditions: cited from earlier work
[5] = system: beagle dogs; set-up: method as in Yang et al. (2022), 42; conditions: dietary supplementation at 2.5 g/kg, ref Yang et al. (2022), 42; cited from earlier work
[6] = ref Marchiori et al. (2019), 49

Structure (SMILES) | Inhibition (%) at 50 μM ([1]; 50 μM inhibitor, 0.6 μM FRET substrate, 1.25 μg enzyme, 50 mM Tris/HCl pH 7.0, 37°C, 3 min) [%] | inhibition at 50 µM ([1]; pH 7, read-out: Inhibition (%) at 50 μM, 50 μM inhibitor, 0.6 μM FRET substrate, 1.25 μg enzyme, 50 mM Tris/HCl pH 7.0, 37°C, 3 min) [%] | fold higher CPV-2 NS1 endonuclease inhibitory activity than demethoxycurcumin ([1]; ratio of IC50 values) [fold] | IC50 ([1]; 0.6 μM FRET substrate, 3 min) [µM] | antioxidant capacity versus control group [2] | egg production versus controls [2, 6] | egg weight and mass versus controls [2, 6] | effect on canine health [3] | safe proposed maximum level in complete feed [4] [mg/kg] | effect on environmental stress-induced symptoms [5]
COc1cc(/C=C/C(=O)CC(=O)/C=C/c2ccc(O)c(OC)c2)ccc1O [Curcumin] | 100 | > 95 | 2.17 | 0.29 ± 0.07 | higher antioxidant capacity than the control group | higher | higher | enhanced canine health by stimulating the antioxidant system and erythropoiesis | – | –
O=C(OCC1OC(OC(=O)c2cc(O)c(O)c(OC(=O)c3cc(O)c(O)c(O)c3)c2)C(OC(=O)c2cc(O)c(O)c(OC(=O)c3cc(O)c(O)c(O)c3)c2)C(OC(=O)c2cc(O)c(O)c(OC(=O)c3cc(O)c(O)c(O)c3)c2)C1OC(=O)c1cc(O)c(O)c(OC(=O)c2cc(O)c(O)c(O)c2)c1)c1cc(O)c(O)c(OC(=O)c2cc(O)c(O)c(O)c2)c1 (centres unmarked) [Tannic acid] | – | – | – | 1.18 ± 0.1 | – | – | – | – | ≤ 15 | relieved environmental stress-induced diarrheal symptoms, inflammatory response, and oxidative stress
